Consider 14 molecules from US12441768B2, “Compositions and methods for treating endometriosis” (EndoMet Biosciences, Inc., priority 2018, dated 2025).

Structures are written as SMILES. *1 amine or outer side, *2 acyl side, *3 side chain or, on linkers, in order; H or OH if unused. Where a SMILES comes first, the peptide text is derived from it. Bridges are numbered along the chain shown (N, C = ends). [ ]: non-standard residue; d: D form. Glutaryl = O=C(CCCC(=O)[*:2])[*:1]; NMeNva = CCC[C@H](NC)C(=O)O

The target of the experiment is T1, β-catenin (Homo sapiens, UniProt P35222).
T1 sequence (P35222 1-781): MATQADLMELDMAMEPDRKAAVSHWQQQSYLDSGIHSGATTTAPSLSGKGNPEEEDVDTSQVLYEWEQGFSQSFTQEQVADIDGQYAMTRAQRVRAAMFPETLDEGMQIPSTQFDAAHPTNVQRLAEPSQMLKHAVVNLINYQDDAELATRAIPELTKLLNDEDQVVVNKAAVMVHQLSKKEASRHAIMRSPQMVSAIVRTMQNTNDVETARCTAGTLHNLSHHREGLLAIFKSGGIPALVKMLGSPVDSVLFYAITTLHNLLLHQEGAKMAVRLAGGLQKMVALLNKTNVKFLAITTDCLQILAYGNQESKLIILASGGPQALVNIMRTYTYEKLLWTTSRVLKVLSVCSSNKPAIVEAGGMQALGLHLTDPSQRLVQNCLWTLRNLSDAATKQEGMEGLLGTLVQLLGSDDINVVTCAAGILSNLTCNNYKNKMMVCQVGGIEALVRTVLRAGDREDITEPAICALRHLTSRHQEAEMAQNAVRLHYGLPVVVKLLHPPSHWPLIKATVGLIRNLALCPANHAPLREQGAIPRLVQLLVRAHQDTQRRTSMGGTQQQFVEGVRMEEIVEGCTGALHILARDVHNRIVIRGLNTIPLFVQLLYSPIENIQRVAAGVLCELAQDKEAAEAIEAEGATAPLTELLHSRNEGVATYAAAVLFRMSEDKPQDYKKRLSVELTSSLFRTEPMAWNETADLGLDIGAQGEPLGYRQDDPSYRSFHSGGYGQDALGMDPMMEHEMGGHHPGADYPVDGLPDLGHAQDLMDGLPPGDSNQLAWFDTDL
Briefly: KD50 measurement using competitive fluorescence polarization (FP) with labelled TCF4. Conditions: for Kd / β-Cat FP Hill slope: fluorescence polarization, β-catenin; for Kd: read-out: β-Cat FP KD. Type of experiment: binding. The source says:
Fluorescence polarization (FP) is another method used to analyze protein-ligand interactions. This methodology measures the change in fluorescence light emitted by a labelled compound free vs. conjugated to another compound in solution. Upon binding of the fluorescent molecule to a complex, polarization increases because of limited rotation of the fluorescent tracer. Competitive FP is often utilized in drug screens as it is formatted for high throughput screens in a plate format. This immunoassay is performed by introducing a non-conjugated drug to compete for binding to the labelled competitor-ligand complex, leading to a reduction in polarization. TCF4 protein is utilized for the competitive assay as (1) this protein influences the full activation of the Wnt pathway and (2) shares homology with the β-catenin inhibitors. Exemplary methodology is described in Example 13. Data were analyzed and plotted in Microsoft Excel (Microsoft, Redmond, WA).
5 nM of labelled TCF4 protein was added to solution of 100 nM of β-catenin and incubated at room temperature in 96-well plates (Greiner 96 Flat transparent plates, Millipore Sigma, Carlsbad CA). Varying concentrations of β-catenin inhibitor candidate (SEQ ID NO: 404) were then added in a series of serial dilutions from 10 nM to 30 uM of inhibitor in different wells of the plate. The fluorescence polarization was read by Infinite M1000 (Tecan, Baldwin Park CA) at excitation wavelength of 470 nm and measured at emission wavelength of 520 nm. […] The experiments were performed three times and data were analyzed and plotted in Microsoft Excel (Microsoft, Redmond, WA).

On to `CCCCCCCCCCCCCCCCCC(=O)N[C@@H](Cc1c[nH]c2ccccc12)C(=O)N(C)[C@@H](Cc1c[nH]c2ccccc12)C(=O)N[C@@H](CCC(=O)O)C(=O)NC(C)(CO)C(=O)N[C@H](C(=O)N[C@@H](CC(C)C)C(=O)N[C@@H](CC(=O)O)C(=O)N[C@@H](CCC(=O)O)C(=O)N[C@@H](Cc1c[nH]cn1)C(=O)NC(C)(C(=O)N[C@@H](CCC(N)=O)C(=O)N[C@@H](CCCNC(=N)N)C(=O)N[C@H](C(=O)N[C@@H](Cc1c[nH]c2ccccc12)C(=O)O)C(C)C)C(C)C)[C@@H](C)CC` (single isomer, unassigned) [SEQ ID NO: 393/500, Stearyl-W-NmeW-E-aMeS-ILDEH-aMeV-QRVW-COOH], for which the Kd is more than 30 µM.
In the case of `CC[C@H](NC(=O)[C@@H](NC(=O)[C@H](CC(C)C)NC(=O)[C@H](CC1CCCCC1)NC(=O)[C@H](Cc1c[nH]c2ccccc12)NC(=O)[C@H](CCCCN)NC(=O)COCCOCCNC(=O)[C@H](CCCNC(=N)N)NC(=O)[C@H](CCCNC(=N)N)NC(=O)[C@H](CCCNC(=N)N)NC(=O)[C@H](CCC(N)=O)NC(=O)[C@H](CCCNC(=N)N)NC(=O)[C@H](CCCNC(=N)N)NC(=O)[C@H](CCCCN)NC(=O)[C@H](CCCCN)NC(=O)[C@@H](N)CCCNC(=N)N)[C@@H](C)CC)C(=O)N[C@@H](C)C(=O)N[C@@H](Cc1c[nH]c2ccccc12)C(=O)N[C@@H](CC(=O)O)C(=O)O` [282/493] (HELM PEPTIDE1{R.K.K.R.R.Q.R.R.R.[O=C(COCCOCCN[*:1])[*:2]].K.W.[Cha].L.I.[Abu].A.W.D}$$$$V2.0), the “β-Cat FP Hill slope” value is on record as 0.77.
`CC[C@H](C)[C@@H]1NC(=O)[C@@H](NC(=O)[C@H](CCC(N)=O)NC(=O)[C@H](C)N(C)C(=O)[C@H](Cc2c[nH]c3ccccc23)NC(C)=O)CCCCNC(=O)CC[C@@H](C(=O)N[C@@H](Cc2c[nH]cn2)C(=O)N[C@H](C(=O)N[C@@H](CCC(N)=O)C(=O)N[C@@H](CCCNC(=N)N)C(=O)N[C@H](C(=O)N[C@@H](Cc2c[nH]c3ccccc23)C(=O)NCC(N)=O)C(C)C)C2CCCCC2)NC(=O)[C@H](CC(=O)O)NC(=O)[C@H](CC(C)C)NC1=O` [SEQ ID NO: 404, cyclo-AcNH-W-NmeA-QK*ILDE*H-Chg-QRVWG-NH2] (HELM PEPTIDE1{[ac].W.[meA].Q.K.I.L.D.E.H.[O=C([C@@H](N[*:1])C1CCCCC1)[*:2]].Q.R.V.W.G.[am]}$PEPTIDE1,PEPTIDE1,5:R3-9:R3$$$V2.0): the “Binding to β-catenin (fluorescence polarization)” value (5 nM labelled TCF4, 100 nM β-catenin, 10 nM to 30 uM inhibitor) was “binds β-catenin in a concentration-dependent manner”.
With `CCC[C@H]1C(=O)N[C@@H](CCC(N)=O)C(=O)N[C@@H](CO)C(=O)N[C@@H](CC(C)C)C(=O)N[C@@H](Cc2ccccc2)C(=O)N(C)[C@@H](CCC)C(=O)N2CCC[C@H]2C(=O)N2CCC[C@H]2C(=O)N(C)[C@@H](CCC)C(=O)N[C@H](C(N)=O)CCCCNC(=O)CCCC(=O)N[C@@H](CCSC)C(=O)N[C@@H](CCSC)C(=O)N1C` [compound 3] (MM[NMeNva]QSLF[NMeNva]PP[NMeNva]K-NH2; linker N-12 via Glutaryl), the “β-Cat FP Hill slope” value was 0.98 and the Kd lay in the range of 10 to 30 µM.
The matching figures for `CCC[C@H]1C(=O)N[C@@H](Cc2c[nH]c3ccccc23)C(=O)N[C@@H](CC(C)C)C(=O)N[C@@H](CO)C(=O)N[C@@H](CCCNC(=N)N)C(=O)N[C@@H](CCC(N)=O)C(=O)N[C@@H](Cc2c[nH]c3ccccc23)C(=O)N[C@@H]([C@@H](C)CC)C(=O)N[C@@H](C(C)C)C(=O)N[C@H](C(N)=O)CCCCNC(=O)CCCC(=O)N[C@@H](CCSC)C(=O)N[C@@H](Cc2c[nH]c3ccccc23)C(=O)N1C` [compound 5] (HELM PEPTIDE1{M.W.[CCC[C@@H](C(=O)[*:2])N(C)[*:1]].W.L.S.R.Q.W.I.V.K.[am]}|CHEM1{[O=C(CCCC(=O)[*:2])[*:1]]}$PEPTIDE1,CHEM1,1:R1-1:R1|PEPTIDE1,CHEM1,12:R3-1:R2$$$V2.0): 0.5 and 1 to 10 µM.
In the case of `CC[C@H](C)[C@H](NC(=O)[C@H](CC(C)C)NC(=O)[C@H](Cc1ccccc1)NC(=O)[C@H](Cc1c[nH]c2ccccc12)NC(=O)[C@H](CCSC)NC(=O)[C@H](CCCNC(=N)N)NC(=O)[C@H](CO)NC(=O)[C@@H](N)CCSC)C(=O)N[C@@H](CO)C(=O)N[C@@H](Cc1ccccc1)C(=O)N[C@@H](Cc1c[nH]c2ccccc12)C(=O)N[C@@H](CCCCN)C(N)=O` [compound 6] (H-MSRMWFLISFWK-NH2), the Kd was more than 30 µM.
For `CC[C@H](C)[C@H](NC(=O)[C@H](CC(C)C)NC(=O)[C@H](Cc1ccccc1)NC(=O)[C@H](Cc1c[nH]c2ccccc12)NC(=O)[C@@H](N)CCSC)C(=O)N[C@@H](CO)C(=O)N[C@@H](Cc1ccccc1)C(=O)N[C@@H](Cc1c[nH]c2ccccc12)C(=O)N[C@@H](C)C(=O)O` [compound 7] (H-MWFLISFWA-OH), the “β-Cat FP Hill slope” value is recorded as 0.5 and the Kd was in the range of 10 to 30 µM.
The matching figures for `CC[C@H](C)[C@H](NC(=O)[C@H](CC(C)C)NC(=O)[C@H](Cc1ccccc1)NC(=O)[C@H](Cc1c[nH]c2ccccc12)NC(=O)[C@@H](N)CCSC)C(=O)N[C@@H](CO)C(=O)N[C@@H](Cc1ccccc1)C(=O)N[C@@H](C)C(=O)NCC(=O)O` [compound 8] (H-MWFLISFAG-OH): 1.7 and 1 to 10 µM.
The matching figures for `CC[C@H](C)[C@H](NC(=O)[C@H](CC(C)C)NC(=O)[C@H](Cc1ccccc1)NC(=O)[C@H](Cc1c[nH]c2ccccc12)NC(=O)[C@@H](N)CCSC)C(=O)N[C@@H](CO)C(=O)N[C@@H](C)C(=O)N[C@@H](Cc1c[nH]c2ccccc12)C(=O)NCC(=O)O` [compound 9] (H-MWFLISAWG-OH): 0.51 and 1 to 10 µM.
In the case of `CC[C@H](C)[C@H](NC(=O)[C@H](CC(C)C)NC(=O)[C@H](Cc1ccccc1)NC(=O)[C@H](Cc1c[nH]c2ccccc12)NC(=O)[C@@H](N)CCSC)C(=O)N[C@@H](C)C(=O)N[C@@H](Cc1ccccc1)C(=O)N[C@@H](Cc1c[nH]c2ccccc12)C(=O)NCC(=O)O` [compound 10] (H-MWFLIAFWG-OH), the “β-Cat FP Hill slope” value is 0.73 and the dissociation constant (Kd) fell in the range of 1 to 10 µM.
The matching figures for `CSCC[C@H](N)C(=O)N[C@@H](Cc1c[nH]c2ccccc12)C(=O)N[C@@H](Cc1ccccc1)C(=O)N[C@@H](CC(C)C)C(=O)N[C@@H](C)C(=O)N[C@@H](CO)C(=O)N[C@@H](Cc1ccccc1)C(=O)N[C@@H](Cc1c[nH]c2ccccc12)C(=O)NCC(=O)O` [compound 11] (H-MWFLASFWG-OH): 1.31 and 0.4 to 1 µM.
The matching figures for `CC[C@H](C)[C@H](NC(=O)[C@H](C)NC(=O)[C@H](Cc1ccccc1)NC(=O)[C@H](Cc1c[nH]c2ccccc12)NC(=O)[C@@H](N)CCSC)C(=O)N[C@@H](CO)C(=O)N[C@@H](Cc1ccccc1)C(=O)N[C@@H](Cc1c[nH]c2ccccc12)C(=O)NCC(=O)O` [compound 12] (H-MWFAISFWG-OH): 0.5 and 1 to 10 µM.
The matching figures for `CC[C@H](C)[C@H](NC(=O)[C@H](CC(C)C)NC(=O)[C@H](C)NC(=O)[C@H](Cc1c[nH]c2ccccc12)NC(=O)[C@@H](N)CCSC)C(=O)N[C@@H](CO)C(=O)N[C@@H](Cc1ccccc1)C(=O)N[C@@H](Cc1c[nH]c2ccccc12)C(=O)NCC(=O)O` [compound 13] (H-MWALISFWG-OH): 0.86 and 0.4 to 1 µM.
For the molecule `CC[C@H](C)[C@@H]1NC(=O)[C@H](CC(C)C)NC(=O)[C@H](Cc2ccccc2)NC(=O)[C@H](Cc2c[nH]c3ccccc23)NC(=O)[C@@H](N)CCCCNC(=O)CC[C@@H](C(=O)O)NC(=O)[C@H](Cc2c[nH]c3ccccc23)NC(=O)[C@H](Cc2ccccc2)NC(=O)[C@H](CO)NC1=O` [compound 226] (HELM PEPTIDE1{K.W.F.L.I.S.F.W.E}$PEPTIDE1,PEPTIDE1,1:R3-9:R3$$$V2.0), the “β-Cat FP Hill slope” value is on record as 0.69 and the dissociation constant Kd is 1 to 10 µM.
